Experimental data published in patent US4800211A, “5-methylthio-3-hydroxybenzo [b]thiophene-2-carboxamide derivatives as cyclooxygenase and lipoxygenase inhibitors” (Merck & Co., Inc., priority 1986, dated 1989).
Where two headings read alike, the source gives them in different places.

How the values were obtained:
[1] = test system: PAF-induced hyperalgesia; experiment: Platelet Activating Factor-Induced Hyperalgesia in the Rat; type: in vivo, rat (female Sprague-Dawley); conditions: for effect in the PAF-induced hyperalgesia assay (in words): pain response to PAF, rat; for % Analgesia (percentage of animals with vocalization threshold greater than 200 of vehicle-treated controls): Table 1, 30 min before PAF, readings 3 hours after PAF
Protocol: In this assay, which is sensitive to inhibition by lipoxygenase inhibitors, but not cyclooxygenase inhibitors, compounds of formula (I) reduced the pain response to PAF (Table 1).
Groups of 10 female Sprague-Dawley rats, 35-50 g (Taconic Farms), were fasted overnight prior to testing. Hyperalgesia was induced in the rat by the subplantar injection of 1 ug PAF in physiological saline. Pain threshold was measured by applying pressure to the plantar surface of the hindpaw by means of a compressed air driven piston with a 2 mm tip. Vocalization thresholds were obtained 3 hr after injection of the PAF. Compounds, prepared at various doses in 1% methylcellulose suspension, were administered perorally 30 min before PAF. For each drug treatment group, animals with response pressures in the inflamed paw of 200% of control was considered to be analgesic. The mean vocalization threshold for each group was also calculated.

[2] = test system: microsomal ram vesicular gland cyclooxygenase; experiment: Inhibition of microsomal ram vesicular gland cyclooxygenase; type: biochemical
Excerpt: The protocol for measuring inhibition of this prostaglandin-producing enzyme has been published.

[3] = target: T1, RBL-1 cell 5-lipoxygenase (Rattus norvegicus, UniProt P12527); experiment: Inhibition of RBL-1 Cell 5-Lipoxygenase (5-HETE formation); type: biochemical; conditions: read-out: Percent Inhibition
T1 construct: measured in vitro against the RBL-1 cell 5-lipoxygenase; endogenous in cells; host or cells: RBL-1 cells
T1 sequence (P12527 1-673): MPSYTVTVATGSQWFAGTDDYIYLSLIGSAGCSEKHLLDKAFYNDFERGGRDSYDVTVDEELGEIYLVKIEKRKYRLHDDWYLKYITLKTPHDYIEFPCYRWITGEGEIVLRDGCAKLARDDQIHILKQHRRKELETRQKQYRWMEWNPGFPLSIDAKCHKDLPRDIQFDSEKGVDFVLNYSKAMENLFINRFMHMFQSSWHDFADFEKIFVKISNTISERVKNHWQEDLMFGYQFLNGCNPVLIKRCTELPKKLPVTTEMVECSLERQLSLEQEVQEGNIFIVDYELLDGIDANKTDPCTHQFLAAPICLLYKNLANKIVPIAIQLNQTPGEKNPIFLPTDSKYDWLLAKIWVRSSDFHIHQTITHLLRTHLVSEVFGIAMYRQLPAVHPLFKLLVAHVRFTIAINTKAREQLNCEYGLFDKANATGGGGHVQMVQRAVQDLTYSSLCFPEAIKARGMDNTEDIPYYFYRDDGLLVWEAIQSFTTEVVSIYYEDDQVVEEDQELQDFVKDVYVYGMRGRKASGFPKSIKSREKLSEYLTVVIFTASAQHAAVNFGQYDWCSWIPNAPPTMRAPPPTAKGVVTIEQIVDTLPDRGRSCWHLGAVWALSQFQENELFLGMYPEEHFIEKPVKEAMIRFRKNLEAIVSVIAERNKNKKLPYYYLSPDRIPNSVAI
Protocol: The ability of the compound of Formula I, e.g., Compound A, to inhibit leukotriene biosynthesis was also measured in vitro against the RBL-1 cell 5-lipoxygenase. The protocol for measuring inhibition of 5-HETE formation has been published in R. W. Egan et al., "Advances in Prostaglandin, Thromboxane, and leukotriene Research", Vol. 11 (edited by B. Samuelsson et al., Raven Press, N.Y., 1983), p. 151.

[4] = Rattus norvegicus, Platelet, po, 3 h, Table 2, 30 mg/kg p.o., read-out: % Rats Exhibiting Analgesia
[5] = Rattus norvegicus, po, 3 h, read-out: % Rats Exhibiting Analgesia

SMILES | responders at 30 mg/kg [1, 4] [%] | effect in the PAF-induced hyperalgesia assay (in words) [1] | further results
CN1C(C(=O)Nc2ccccn2)=C(O)c2ccccc2S1(=O)=O [Piroxicam] | 0 | completely ineffective | –
CC(=O)Oc1ccccc1C(=O)O [Aspirin] | – | – | responders at 100 mg/kg [1, 5]: 10%
O=C(O)c1cc(-c2ccc(F)cc2F)ccc1O [Diflunisal] | 10 | – | –
CC(C)Cc1ccc(C(C)C(=O)O)cc1 (centres unmarked) [Ibuprofen] | 10 | completely ineffective | –
COc1ccc2c(c1)c(CC(=O)O)c(C)n2C(=O)c1ccc(Cl)cc1 [Indomethacin] | – | completely ineffective | responders at 10 mg/kg [1, 5]: 10%
CSc1ccc2sc(C(=O)NCc3ccccc3)c(O)c2c1 [Compound B, 3Hydroxy-5-(methylthio)---N--(phenylmethyl)benzo[b]thiophene2-carboxmide] | – | – | % Analgesia (percentage of animals with vocalization threshold greater than 200 of vehicle-treated controls) ([1]; 30 mg/kg p.o.): 80%
COc1ccc2cc([C@H](C)C(=O)O)ccc2c1 [Naproxen] | – | – | responders at 30 mg/kg [1, 5]: 10%
CSc1ccc2sc(C(=O)Nc3cccc(Cl)c3)c(O)c2c1 [Compound A, --N--(3chlorophenyl)-3-hydroxy-5-(methylthio)benzo[b]thiophene2-carbxamide] | 90 | – | Percent Inhibition [2]: 95%; % Analgesia (percentage of animals with vocalization threshold greater than 200 of vehicle-treated controls) ([1]; 30 mg/kg p.o.): 90%; inhibition at 0.5 µg/mL ([3]; 0.5 ug/ml): 48%; inhibition at 1 µg/mL ([3]; 1 ug/ml): 58%; inhibition at 2 µg/mL ([3]; 2 ug/ml): 74%; inhibition at 10 µg/mL ([3]; 10 ug/ml): 83%
CC(C(=O)O)c1ccc2oc(-c3ccc(Cl)cc3)nc2c1 (centres unmarked) [Benoxaprofen] | 10 | completely ineffective | –
CC1=C(CC(=O)O)c2cc(F)ccc2/C1=C\c1ccc([S+](C)[O-])cc1 (centres unmarked) [Sulindac] | 10 | – | –
